# Results published in US20080058642A1, “METHOD FOR DETECTING CORONARY ENDOTHELIAL DYSFUNCTION AND EARLY ATHEROSCLEROSIS” (BOARD OF REGENTS OF THE UNIVERSITY OF TEXAS SYSTEM, priority 2006, published 2008).
# Key:
# [1] = target: T1, endothelin 1A receptor (Sus scrofa, UniProt Q29010); settings: porcine saphenous vein-carotid artery interposition grafts; cited from earlier work
# T1 construct: host or cells: in vivo, porcine vein grafts
# T1 sequence (Q29010 21-427): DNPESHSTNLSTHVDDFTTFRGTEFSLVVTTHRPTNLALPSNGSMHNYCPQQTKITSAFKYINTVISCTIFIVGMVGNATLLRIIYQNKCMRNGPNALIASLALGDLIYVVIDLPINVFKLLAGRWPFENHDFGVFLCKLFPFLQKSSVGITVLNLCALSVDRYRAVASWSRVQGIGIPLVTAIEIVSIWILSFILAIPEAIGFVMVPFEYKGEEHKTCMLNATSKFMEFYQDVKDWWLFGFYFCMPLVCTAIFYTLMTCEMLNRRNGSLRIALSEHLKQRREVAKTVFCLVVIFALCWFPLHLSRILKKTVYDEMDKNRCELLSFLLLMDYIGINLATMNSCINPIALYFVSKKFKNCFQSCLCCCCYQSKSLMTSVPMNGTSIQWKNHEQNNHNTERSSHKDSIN
# [2] = tested on: healthy adult hound dogs (left circumflex coronary artery, LCx, territory); assay: Endothelin-induced myocardial perfusion defects by 82Rb PET imaging in dogs; format: in vivo, dog; settings: for severity of perfusion defect after intracoronary infusion: intracoronary into LCx for 10 min, L-NMMA 100-400 μg/kg/min in five dogs vs ET-1; for AD i.c. pre-ET: LCx 82Rb uptake as % of baseline: intracoronary adenosine before ET-1; for AD i.c. post-ET: LCx 82Rb uptake as % of baseline: intracoronary adenosine after ET-1; for AD i.v.: LCx 82Rb uptake as % of baseline: intravenous adenosine 0.142 mg/kg/min after ET-1
# Protocol: Experimental Preparation. The experimental protocol was approved by the Animal Welfare Committee of the University of Texas Health Sciences Center at Houston. After an overnight fast, healthy adult hound dogs (n=14) of both sexes, 21-35 kg, were anesthetized with 30 mg/kg pentobarbital sodium (Nembutal) and underwent endotracheal intubation and mechanical ventilation with adequate anesthesia maintained by small supplemental doses during the experiment. Arterial blood gases were maintained within physiological range by adjusting the mechanical ventilator with supplemental oxygen, core body temperature was maintained at 37° C. with a homeothermic blanket, and stable body position was maintained throughout the duration of the imaging protocol by using a specially designed portable cradle for both coronary arteriography and PET imaging without moving the dog strapped to the portable cradle.
# Arterial access was obtained via the right femoral artery by standard Seldinger technique with an arterial micropuncture kit (Cook, Bloomington, Ind.) with a 6-F arterial sheath. All animals received 100 IU/kg of initial heparin bolus, with 50 IU/kg every hour for the duration of the experiment. A 6-F standard JL3 VistaBrite coronary guide catheter (Cordis-Cardiology, Miami Lakes, Fla.) was positioned under fluoroscopic guidance into the left main coronary artery ostium.
# After a stable position for the guide catheter was obtained, a 0.014-in.-diameter Hi-Torque Whisper guide wire (Guidant, Indianapolis, Ind.) was placed in the left circumflex coronary artery (LCx). Over the coronary wire, a 2.3-F, 150-cm-long, 0.042-in.-minimal diameter Rapidtransit infusion catheter (Cordis-Cardiology) was positioned in the LCx, with the tip in the midsegment of the LCx artery proximal to the takeoff of the first large obtuse marginal branch. The guide wire was removed, the guide catheter was withdrawn into the aortic root, and the small catheter was left in place in the mid-LCx.
# Experimental Protocol. Contrast angiograms were obtained to document the LCx as the dominant coronary artery and the small catheter position in the mid-LCx. With contrast solution diluted 50% with normal saline, different injection rates were tested to determine the rate at which back flow occurred into the proximal segment of the coronary artery. […] Dogs were then moved into the PET scanner without changing position on the special cradle, and a repeat subselective angiogram was performed under fluoroscopy on the PET imaging table to ensure that the small intracoronary infusion catheter positioned in the mid-LCx had not changed during transportation. PET imaging was carried out with the University of Texas-designed Posicam BGO multislice tomograph HZL/mPower (Positron, Houston) as previously described (e.g., Halcox et al., Circulation 106:653-658, 2002), with a reconstructed resolution of 10-mm full-width half-maximum. Images were acquired in two-dimensional mode with extended septa to minimize scattered counts with random coincidences corrected from the singles count rate.
# On the basis of a 5-min positioning transmission scan, dogs were precisely positioned in the PET scanner and laser guides aligned to external body markers were used to check correct position for every image acquisition. With a rotating rod source containing 4-5 mCi of ^68Ge, transmission images to correct for photon attenuation contained about 70-90 million counts. Emission images obtained after intravenous injection of […]-1,110 MBq (25-30 mCi) of generator-produced rubidium-82 (^82Rb) contained about 20-30 million counts. The protocol used the following imaging sequence as illustrated in FIG. 7.
# Step 1. Immediately after completion of a resting perfusion image with intravenous ^82Rb, 3 mg/ml adenosine (Fujisawa Healthcare, Deerfield, Ill.) was infused subselectively into the LCx for 4 min at 2 ml/min. […]
# [3] = tested on: myocardial perfusion; assay: Rest-dipyridamole myocardial perfusion PET with Markovian homogeneity analysis; format: in vivo, human
# Excerpt: Study Patients. The population for this study consists of 1,034 consecutive subjects undergoing diagnostic, rest-dipyridamole, myocardial perfusion PET at The Weatherhead PET Center For Preventing and Reversing Atherosclerosis of the University of Texas Medical School—Houston. All subjects signed informed consent approved by the Committee for the Protection of Human Subjects of the University of Texas Health Science Center. A complete medical history was obtained on all patients undergoing diagnostic cardiac PET for assessment or follow-up of known CAD, for second opinions on revascularization procedures, for prior positive stress tests, for coronary calcification by CT, for chest pain or other symptoms, for screening, or for risk factors. A history of risk factors was obtained for age, sex, diabetes, hypertension, high cholesterol, family history of vascular disease, excess weight, lack of exercise, and past or present smoking, that were counted as positive even if treated, as with hypertensive or lipid-lowering medications.
# PET. Patients were instructed to fast for 4 h and abstain from caffeine, theophylline, and cigarettes for 24 h before study. PET was performed using the University of Texas designed, Positron Posicam Auricle, bismuth germanate, 2-dimensional (2D) multislice tomograph with a reconstructed resolution of 10-mm full width at half maximum. Using a rotating rod source containing 148-185 MBq (4-5 mCi) of ^68Ge, transmission images to correct for photon attenuation contained approximately 40-60 million counts. Emission images obtained after intravenous injection of 925-1,850 MBq (25-50 mCi) of generator-produced ^82Rb contained 20-50 million counts depending on the age of the generator and size of the patient. After resting ^82Rb data acquisition, dipyridamole (0.142 mg/kg/min) was infused for 4 min. At 4 min after completion of the dipyridamole infusion, the same dose of ^82Rb was given intravenously.
# Automated Quantitative Analysis of PET Images. […]
# [4] = intracoronary ET-1 1.5-3.5 ng/kg/min for 10 min, repeated doses in six dogs
structure (smiles),measurement,setting,value
"Cc1cc(C)nc(O[C@H](C(=O)O)C(C)(c2ccccc2)c2ccccc2)n1 [BSF 302146, [+]-[S]-2-[4,6-dimethyl-pyridimin-2-yloxy]-3,3-diphenyl-butanoic acid]",inhibition of neointimal and medial thickening,[1],potent inhibitor
"CC[C@H](C)[C@H](NC(=O)[C@H](CC(=O)O)NC(=O)[C@H](CC(C)C)NC(=O)[C@H](Cc1cnc[nH]1)NC(=O)[C@@H]1CSSC[C@H](N)C(=O)N[C@@H](CO)C(=O)N[C@H]2CSSC[C@H](NC(=O)[C@H](CCC(=O)O)NC(=O)[C@H](CCCCN)NC(=O)[C@H](CC(=O)O)NC(=O)[C@H](CCSC)NC(=O)[C@H](CC(C)C)NC(=O)[C@H](CO)NC(=O)[C@H](CO)NC2=O)C(=O)N[C@@H](C(C)C)C(=O)N[C@@H](Cc2ccc(O)cc2)C(=O)N[C@@H](Cc2ccccc2)C(=O)N1)C(=O)N[C@H](C(=O)N[C@@H](Cc1c[nH]c2ccccc12)C(=O)O)[C@@H](C)CC [ET-1, endothelin-1]",ΔET − Baseline (severity of ET-induced defect),[2]; Group 1,−12.7%
same,ET: LCx 82Rb uptake as % of baseline,"[2]; Group 1, after intracoronary ET-1, total dose 44.3 ng",89.3%
same,ET: LCx 82Rb uptake as % of baseline,"[2]; Group 1, after intracoronary ET-1, total dose 44.3 ng, listed as ET",89.3 ± 7.3%
same,ΔET − Baseline (severity of ET-induced defect),"[2]; Group 1, listed as ET",−12.7 ± 6.7%
same,ΔET − Baseline (severity of ET-induced defect),[2]; Group 2,−11.1%
same,ET: LCx 82Rb uptake as % of baseline,"[2]; Group 2, after intracoronary ET-1, total dose 67.5 ng",90.2%
same,ET: LCx 82Rb uptake as % of baseline,"[2]; Group 2, after intracoronary ET-1, total dose 67.5 ng, listed as ET",90.2 ± 8.1%
same,ΔET − Baseline (severity of ET-induced defect),"[2]; Group 2, listed as ET",−11.1 ± 11.9%
same,death because of ET-1 administration,[2]; [4],no animal died
same,tachyarrhythmia,[2]; [4],No tachyarrhythmia developed
same,severity of perfusion defect after intracoronary infusion,[2],−10.13%
same,duration of perfusion defect after intracoronary ET-1 infusion,"[2]; pilot dose-finding, three dogs, in several instances",up to 5 h
same,time at which perfusion defect was first observed,"[2]; pilot dose-finding, end of initial intracoronary ET-1 infusion",≥ 10 min
"CNC(=N)NCCC[C@H](N)C(=O)O [L-NMMA, N^G-monomethyl-L-arginine]",severity of perfusion defect after intracoronary infusion,[2],−2.48%
Nc1ncnc2c1ncn2[C@@H]1O[C@H](CO)[C@@H](O)[C@H]1O [adenosine],ΔAD i.c − ET (percent change in LCx uptake),[2]; Group 1,8.7%
same,ΔAD i.v. − ET (change of defect after intravenous adenosine),[2]; Group 1,+4.1%
same,AD i.c. pre-ET: LCx 82Rb uptake as % of baseline,"[2]; Group 1 (n = 8, defect improved after i.v. adenosine)",102%
same,AD i.c. pre-ET: LCx 82Rb uptake as % of baseline,"[2]; Group 1 (n = 8, defect improved after i.v. adenosine), listed as AD",102.0 ± 5.5%
same,AD i.c. post-ET: LCx 82Rb uptake as % of baseline,[2]; Group 1,98.7%
same,AD i.c. post-ET: LCx 82Rb uptake as % of baseline,"[2]; Group 1, listed as AD",98.7 ± 5.5%
same,AD i.v.: LCx 82Rb uptake as % of baseline,[2]; Group 1,93.4%
same,AD i.v.: LCx 82Rb uptake as % of baseline,"[2]; Group 1, listed as AD",93.4 ± 6.0%
same,ΔAD i.c − ET (percent change in LCx uptake),"[2]; Group 1, listed as AD",8.7 ± 4.3%
same,ΔAD i.v. − ET (change of defect after intravenous adenosine),"[2]; Group 1, listed as AD",4.1 ± 2.0%
same,ΔAD i.c − ET (percent change in LCx uptake),[2]; Group 2,10.5%
same,ΔAD i.v. − ET (change of defect after intravenous adenosine),[2]; Group 2,−12.5%
same,AD i.c. pre-ET: LCx 82Rb uptake as % of baseline,"[2]; Group 2 (n = 15, defect not improved or worse after i.v. adenosine)",101.3%
same,AD i.c. pre-ET: LCx 82Rb uptake as % of baseline,"[2]; Group 2 (n = 15, defect not improved or worse after i.v. adenosine), listed as AD",101.3 ± 5.2%
same,AD i.c. post-ET: LCx 82Rb uptake as % of baseline,[2]; Group 2,100.5%
same,AD i.c. post-ET: LCx 82Rb uptake as % of baseline,"[2]; Group 2, listed as AD",100.5 ± 4.3%
same,AD i.v.: LCx 82Rb uptake as % of baseline,[2]; Group 2,77.7%
same,AD i.v.: LCx 82Rb uptake as % of baseline,"[2]; Group 2, listed as AD",77.7 ± 14.5%
same,ΔAD i.c − ET (percent change in LCx uptake),"[2]; Group 2, listed as AD",10.5 ± 8.5%
same,ΔAD i.v. − ET (change of defect after intravenous adenosine),"[2]; Group 2, listed as AD",−12.5 ± 9.2%
same,effect of intracoronary adenosine on ET-1-induced resting perfusion defects,[2]; all experiments,normalized
same,effect of intravenous adenosine on vasoconstrictor effect of ET-1,"[2]; doses comparable to clinical practice, all 23 protocol sequences",only partially counteracted
same,visual change of ET-1-induced perfusion defect after intravenous adenosine,[2]; group 1 (n=8),improved
same,visual change of ET-1-induced perfusion defect after intravenous adenosine,[2]; group 2 (n=15),visually not improved or relatively worse
OCCN(CCO)c1nc(N2CCCCC2)c2nc(N(CCO)CCO)nc(N3CCCCC3)c2n1 [dipyridamole],lowest mean average quadrant activity on the dipyridamole scan,[3]; patient with severe stress-induced perfusion defect,63 % of maximum
same,homogeneity index by Markovian analysis after dipyridamole,"[3]; patient with severe stress-induced perfusion defect, 0.34 at rest",0.49
same,homogeneity index by Markovian analysis after dipyridamole,"[3]; young healthy volunteer without risk factors, 0.80 at rest",0.83
